Measurements published in patent publication US7311743B2, “Biofiltration apparatus and method for reducing methyl bromide concentration in a volume of gas” (Energy Resource Institute, Inc., priority 2004, dated 2007).

Key:
[1] = system: methyl bromide-degrading bacteria; assay: Methyl bromide removal in the biotrickling filter
Description: A biotrickling filter was constructed as schematically represented in FIG. 2. The apparatus included three packed bed sections filled with lava rock, perlite or polyurethane as packing materials. Other equipment included an air supply, a methyl bromide supply, recycle liquid circulation, a nutrient supply (as a complete mineral medium), and a pH control by automatic addition of NaOH. The biotrickling filter was usually operated at standard conditions as specified in Table 1.
Cultures of methyl bromide-degrading bacteria were obtained by inoculating or exposing the substrate component of the apparatus with a variety of natural sources or materials, such as soil and sediment. A continuous supply of a low concentration (about 0 to about 10 g/m^3) of methyl bromide was supplied to the apparatus. The first signs of methyl bromide removal were observed after about 6-12 days of operation of the apparatus. The methyl bromide elimination capacity seemed to reach a maximum value after about 35-40 days of operation. During operation, the pH in the recycle liquid declined, small amounts of bromide were produced in the recycle liquid, and the CO2 concentration in the outlet air increased.
The fate of methyl bromide in the biotrickling filter was determined by comparing the rate of methyl bromide removal with the rates of CO2 production, bromide ion production and NaOH consumption as expected from the biodegradation reaction stoichiometry. Biodegradation of methyl bromide and pH control occur according to the following reactions 2CH3Br+3O2→2HBr+2 CO2+2H2O Equation 3 HBr+NaOH→NaBr+H2O Equation 4
The effect of the liquid recycle or trickling rate was examined at the lower and higher end of the range of recycle rates commonly employed in biotrickling filters. Methyl bromide removal was the same at a trickling rates of 2.55 and 22.2 L/h, corresponding to superficial liquid velocities of 2.0 and 17.7 m/h, respectively (Table 2).
The maximum elimination capacity of methyl bromide in the biotrickling filter was determined by stepwise increasing the methyl bromide concentration. Depending on the inlet concentration, the following phases can be distinguished: […]

[2] = Air/organic phase partition coefficient of methyl bromide; format: physicochemical; settings: gas over liquid concentration
Procedure: If necessary, the air/organic phase partition coefficients of methyl bromide in these and other potential organic liquids may be determined by adding a known amount of an organic liquid and methyl bromide to a 250 mL flask with TEFLON-lined silicon septa. A gas headspace may be analyzed for methyl bromide by gas chromatography, and the partition of methyl bromide may be calculated. In certain embodiments, corn oil may be preferred since the air/corn oil partition coefficient for methyl bromide is 0.02, i.e., about ten times lower than with water. Based on calculations, a Henry coefficient of 0.005 may be ideal for load dampening. The organic phase should meet various requirements, such as a low vapor pressure, low toxicity, non-miscibility with water, and being non-biodegradable. Additional examples of liquids may include di-n-octylphtalate, di-n-nonylphtalate, polydimethylsiloxane, and silicone oil. Methyl bromide concentrations in the inlet and outlet air may be determined (continuously or semi-continuously) with a photoionization detector (PID) analyzer, for example. […] Potential carry over of aerosol to the outlet stream may be determined to evaluate whether a demister might be beneficial. For either the GAC or liquid absorption system, the results may be analyzed with mathematical model (see FIG. 19).

Compound | Removal efficiency ([1]; gas flow cocurrent, EBRT = 94 s, inlet 3.042 g/m^3) [%] | Removal efficiency ([1]; gas flow countercurrent (standard operation), EBRT = 94 s, inlet 3.713 g/m^3) [%] | Concentration at which a reduction of the elimination capacity (toxic effect on microorganisms) was observed ([1]; inlet air concentration (3300 ppm)) | Removal efficiency ([1]; low inlet concentrations increasing up to 3 g/m^3) | Removal efficiency ([1]; superficial liquid velocity 2.0 m/h (standard operation), EBRT = 94 s, inlet 2.927 g/m^3) [%] | Removal efficiency ([1]; superficial liquid velocity 17.7 m/h, EBRT = 94 s, inlet 2.927 g/m^3) [%] | Air/corn oil partition coefficient [2] | NaBr concentration in the recycle liquid at which inhibition of methyl bromide removal was observed ([1]; recycle liquid (48 g/L)) [M]
CBr [Methyl bromide] | 63 | 70 | greater than 13 g/m^3 | greater than 96% | 89 | 91 | 0.02 | –
[Br-].[Na+] [NaBr, sodium bromide] | – | – | – | – | – | – | – | ≥ 0.47
